Assay results as given in patent US3933904A, “11,15-Dihydroxy-9,13-prostadienoic acid” (American Home Products Corporation, priority 1974, dated 1976).

Experiments:
[1] = system: bronchoconstricting effects of a standard dose of acetylcholine; assay: Bronchodilation by aerosol inhalation (method of Rosenthale et al.): inhibition of the bronchoconstricting effects of a standard dose of acetylcholine; type: in vivo; settings: guinea pig
Text: In using the compounds of the invention to produce bronchodilating effects in warm-blooded animals, they may be administered in a variety of dosage forms: oral, injectable, and aerosol inhalation. Aerosol inhalation is a preferred method because of its rapid onset of action, great potency, and specificity of action. The particular dosage to obtain the bronchodilating effect will vary with the particular compound employed, the particular animal involved, and the degree of bronchodilation desired. In the guinea pig, by aerosol inhalation, the dose to produce bronchodilation is from about 1.5 micrograms to about 100 micrograms, and preferably from about 1.5 to about 50 micrograms. The bronchodilation produced upon aerosol inhalation can be observed by the method of Rosenthale et al., J. Pharmacol. Exp. Ther., 178, 541 (1971). Using this procedure the following result was obtained.

[2] = system: ADP induced platelet aggregation (human platelet rich plasma); assay: ADP induced platelet aggregation in platelet rich plasma (modification of Born and Cross); type: cell-based; settings: human PRP, in vitro; for IC50: Platelet, ADP induced (2 to 4 μM ADP), read-out: Concentration which inhibits 50% of platelet aggregation
Protocol: Platelet aggregation is the initial step in thrombus formation and it is considered that compounds which prevent aggregation or reduce platelet adhesiveness may inhibit the initiation of the arteriosclerotic process. The effect of drugs on aggregation is measured in platelet rich plasma (PRP) containing adenosine diphosphate (ADP) which markedly increases aggregation in vitro and may be a physiological agent for doing so in vivo.
Human blood is collected from fasted normal blood donors in siliconized 50 ml. Vacutainers that contain 3.8% sodium citrate. Centrifugation at 500 G. for 3 minutes at 5° C. separates the red blood cells from the PRP. The supernatant PRP is pipetted off and the remainder is centrifuged at 1000 G. for 10 minutes at 25° C. to obtain platelet poor plasma for standardization of the automated Payton aggregometer. In the running of the platelet aggregation test a cell containing 1.0 ml. of PRP is stirred at 1,100 rpm and the test compound is added in 0.2 ml. of buffered saline to give an initial concentration of 5 × 10^-^3 M, or 5 × 10^-^4 M. After 3 minutes, a concentration of ADP predetermined to yield marked platelet aggregation (2 to 4 μM) is added in 0.1 ml. of buffered saline. The curve of light transmission at 610 mμ is followed for 6 minutes. Compounds found to be active at the initial concentration are run at lower concentrations. The results are expressed as the concentration which gives 50% inhibition of the ADP induced aggregation.

[3] = Hypotension in the anesthetized dog, intravenous route; type: in vivo; settings: dose 100 μg/kg
Protocol: Thus in the anesthetized dog by the intravenous route the dose to produce hypotension is from about 1 μg/kg. to about 200 μg/kg. and preferably from about 10 μg/kg. to about 100 μg/kg. Using this procedure the following results were obtained.

Row | IC50 [2] | Compound | Percent Inhibition of the bronchoconstricting effects of a standard dose of acetylcholine ([1]; dose 15 μg) | Inhibition of ADP induced platelet aggregation (at concentration) ([2]; at 2.6 × 10^-^6 M) | Percent Inhibition of the bronchoconstricting effects of a standard dose of acetylcholine ([1]; dose 1.5 μg) | Δb.p. [3] | Inhibition of ADP induced platelet aggregation (at concentration) ([2]; at 1.5 × 10^-^6 M)
1 | 2600 nM | CCCCC[C@H](O)/C=C/[C@H]1[C@H](O)C=C[C@@H]1C/C=C\CCCC(=O)O [7-(4α-hydroxy-5β-[(3S)-3-hydroxy-trans-1-octenyl]-2-cyclopenten-1α-yl)-cis-5-heptenoic acid] | 44% | 50% |  |  | 
2 | 1200 nM | CCCCC[C@H](O)/C=C/[C@H]1[C@H](O)C=C[C@@H]1CCCCCCC(=O)O [4α-hydroxy-5β-[(3S)-3-hydroxy-trans-1-octenyl]-2-cyclopentene-1α-heptanoic acid] |  |  | 60% | -34 mm. Hg | 63%
